11 compounds from patent US12662489B2 (Sitryx Therapeutics Limited, priority 2023, dated 2026) can be followed below.

In experiment [1] the target is T1, MTHFD1 recombinant human enzyme (Homo sapiens, UniProt P11586).
T1 sequence (P11586 2-291 limits assumed): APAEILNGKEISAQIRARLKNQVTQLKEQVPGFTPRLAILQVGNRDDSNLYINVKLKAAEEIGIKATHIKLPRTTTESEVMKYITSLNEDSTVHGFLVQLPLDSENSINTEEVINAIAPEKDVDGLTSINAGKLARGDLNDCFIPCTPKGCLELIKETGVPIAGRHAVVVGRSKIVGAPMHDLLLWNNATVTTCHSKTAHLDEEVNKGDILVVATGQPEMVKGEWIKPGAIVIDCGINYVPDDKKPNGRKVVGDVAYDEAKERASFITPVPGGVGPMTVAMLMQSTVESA
Put plainly: MTHFD1 inhibition assay (NAD(P)H-Glo luminescence). As to conditions: MTHFD1 IC50, recombinant human enzyme 200 nM, NADP, band.

In experiment [2] the target is T2, MTHFD2 recombinant human enzyme (Homo sapiens, UniProt P13995).
T2 sequence (P13995 36-350): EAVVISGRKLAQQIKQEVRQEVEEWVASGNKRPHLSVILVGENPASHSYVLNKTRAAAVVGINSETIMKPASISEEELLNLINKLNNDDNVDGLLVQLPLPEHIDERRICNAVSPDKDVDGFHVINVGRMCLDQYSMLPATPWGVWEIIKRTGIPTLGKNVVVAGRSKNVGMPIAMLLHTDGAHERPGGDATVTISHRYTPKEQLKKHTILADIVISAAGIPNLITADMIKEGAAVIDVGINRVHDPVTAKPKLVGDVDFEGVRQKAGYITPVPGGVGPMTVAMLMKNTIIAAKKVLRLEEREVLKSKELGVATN
Nature of the experiment: MTHFD2 inhibition assay (NAD(P)H-Glo luminescence). As to conditions: for MTHFD1/MTHFD2 IC50 ratio: selectivity of MTHFD2 inhibition over MTHFD1, band.

Another experiment concerns human CD4+ T cells. Put plainly: Human CD4+ T-cell proliferation assay (CFSE, CD3/28 beads). As to conditions: read-out: Proliferation IC50.

Consider `COC[C@H]1CN(c2cc(Cl)c3c4c(c(=O)oc3c2C)CN(C(=O)c2cc(N(C)C)c(C(=O)NS(=O)(=O)N3C5CCC3CC5)cc2F)CC4)CCN1C` [Example 316, (R)-N-((7-azabicyclo[2.2.1]heptan-7-yl)sulfonyl)-4-(10-chloro-8-(3-(methoxymethyl)-4-methylpiperazin-1-yl)-7-methyl-5-oxo-1,3,4,5-tetrahydro-2H-chromeno[3,4-c]pyridine-3-carbonyl)-2-(dimethylamino)-5-fluorobenzamide], for which the IC50 was in the range of 1000 to 5000 nM in experiment [1], 10 to 100 nM in experiment [2] and 30 to 100 nM in the experiment on human CD4+ T cells. For the same compound, in experiment [2], the “MTHFD1/MTHFD2 IC50 ratio” value was “J (>30)”.

For the compound `[2H]C([2H])([2H])Oc1cc(C(=O)N2CCc3c(c(=O)oc4c(C)c(N5CCN(C)[C@@H](COC)C5)cc(C)c34)C2)c(Cl)cc1C(=O)NS(=O)(=O)N1CCCC1` [Example 328, (R)-5-chloro-2-(methoxy-d3)-4-(8-(3-(methoxymethyl)-4-methylpiperazin-1-yl)-7,10-dimethyl-5-oxo-1,3,4,5-tetrahydro-2H-chromeno[3,4-c]pyridine-3-carbonyl)-N-(pyrrolidin-1-ylsulfonyl)benzamide], the IC50 was 1000 to 5000 nM in experiment [1], 10 to 100 nM in experiment [2] and 100 to 1000 nM in the experiment on human CD4+ T cells. Further, the “MTHFD1/MTHFD2 IC50 ratio” value in experiment [2] was “J (>30)”.

Turning to `COC[C@H]1CN(c2cc(C)c3c4c(c(=O)oc3c2C)CN(C(=O)c2ccc(C(=O)NS(=O)(=O)N3CC5CCCCC5C3)cc2)CC4)CCN1C` (stereo partly drawn) [Example 211, 4-(8-((R)-3-(methoxymethyl)-4-methylpiperazin-1-yl)-7,10-dimethyl-5-oxo-1,3,4,5-tetrahydro-2H-chromeno[3,4-c]pyridine-3-carbonyl)-N-((octahydro-2H-isoindol-2-yl)sulfonyl)benzamide], the values for the IC50 (in experiment [1]; in experiment [2]; with human CD4+ T cells) were 1000 to 5000 nM, 10 to 100 nM and 1000 to 5000 nM, respectively. The “MTHFD1/MTHFD2 IC50 ratio” value in experiment [2] was “H (>9.0 to 30)”.

`COC[C@H]1CN(c2cc(Cl)c3c4c(c(=O)oc3c2C)CN(C(=O)c2cc(N(C)C)c(C(=O)NS(=O)(=O)N(C)C)cc2Cl)CC4)CCN1C` [Example 291, (R)-5-chloro-4-(10-chloro-8-(3-(methoxymethyl)-4-methylpiperazin-1-yl)-7-methyl-5-oxo-1,3,4,5-tetrahydro-2H-chromeno[3,4-c]pyridine-3-carbonyl)-2-(dimethylamino)-N-(N,N-dimethylsulfamoyl)benzamide]: the IC50 was in the range of 1000 to 5000 nM in experiment [1], 10 to 100 nM in experiment [2] and 30 to 100 nM in the experiment on human CD4+ T cells. Moreover, the “MTHFD1/MTHFD2 IC50 ratio” value in experiment [2] is “J (>30)”.

In the case of `COC[C@H]1CN(c2cc(C)c3c4c(c(=O)oc3c2C)CN(C(=O)c2ccc(C(=O)NS(=O)(=O)N3CCCC3)cc2)CC4)CCN1C` [Example 195, (R)-4-(8-(3-(methoxymethyl)-4-methylpiperazin-1-yl)-7,10-dimethyl-5-oxo-1,3,4,5-tetrahydro-2H-chromeno[3,4-c]pyridine-3-carbonyl)-N-(pyrrolidin-1-ylsulfonyl)benzamide], the IC50 in experiment [1] was 1000 to 5000 nM; in experiment [2], 10 to 100 nM; with human CD4+ T cells, 1000 to 5000 nM. Further, in experiment [2], the “MTHFD1/MTHFD2 IC50 ratio” value was “J (>30)”.

Take `COC[C@H]1CN(c2cc(F)c3c4c(c(=O)oc3c2C)CN(C(=O)c2cc(N(C)C)c(C(=O)NS(=O)(=O)N3C5CCC3CC5)cc2F)CC4)CCN1C` [Example 304, (R)-N-((7-azabicyclo[2.2.1]heptan-7-yl)sulfonyl)-2-(dimethylamino)-5-fluoro-4-(10-fluoro-8-(3-(methoxymethyl)-4-methylpiperazin-1-yl)-7-methyl-5-oxo-1,3,4,5-tetrahydro-2H-chromeno[3,4-c]pyridine-3-carbonyl)benzamide]: the IC50 is 1000 to 5000 nM in experiment [1], 10 to 100 nM in experiment [2] and 10 to 30 nM in the experiment with human CD4+ T cells.

As to `COC[C@H]1CN(c2cc(Cl)c3c4c(c(=O)oc3c2C)CN(C(=O)c2cc(OC)c(C(=O)NS(=O)(=O)N3C5CCC3CC5)cc2F)CC4)CCN1C` [Example 324, (R)-N-((7-azabicyclo[2.2.1]heptan-7-yl)sulfonyl)-4-(10-chloro-8-(3-(methoxymethyl)-4-methylpiperazin-1-yl)-7-methyl-5-oxo-1,3,4,5-tetrahydro-2H-chromeno[3,4-c]pyridine-3-carbonyl)-5-fluoro-2-methoxybenzamide], the figures for the IC50 (in experiment [1]; in experiment [2]; with human CD4+ T cells) were 100 to 1000 nM, 10 to 100 nM and 100 to 1000 nM, respectively. Moreover, the “MTHFD1/MTHFD2 IC50 ratio” value in experiment [2] is “J (>30)”.

In the case of `COC[C@H]1CN(c2cc(Cl)c3c4c(c(=O)oc3c2C)CN(C(=O)c2cc(N(C)C)c(C(=O)NS(=O)(=O)N3CCCC3)cc2F)CC4)CCN1C` [Example 247, (R)-4-(10-chloro-8-(3-(methoxymethyl)-4-methylpiperazin-1-yl)-7-methyl-5-oxo-1,3,4,5-tetrahydro-2H-chromeno[3,4-c]pyridine-3-carbonyl)-2-(dimethylamino)-5-fluoro-N-(pyrrolidin-1-ylsulfonyl)benzamide], the results for the IC50 (in experiment [1]; in experiment [2]; in the experiment with human CD4+ T cells) were 100 to 1000 nM, 1 to 10 nM and 10 to 30 nM, respectively.

Take `[2H]C([2H])([2H])Oc1cc(C(=O)N2CCc3c(c(=O)oc4c(C)c(N5CCN(C)[C@@H](COC)C5)cc(C)c34)C2)c(F)cc1C(=O)NS(=O)(=O)N1CCCC1` [Example 225, (R)-5-fluoro-2-(methoxy-d3)-4-(8-(3-(methoxymethyl)-4-methylpiperazin-1-yl)-7,10-dimethyl-5-oxo-1,3,4,5-tetrahydro-2H-chromeno[3,4-c]pyridine-3-carbonyl)-N-(pyrrolidin-1-ylsulfonyl)benzamide]: the IC50 in experiment [1] fell in the range of 100 to 1000 nM; in experiment [2], 1 to 10 nM; in the experiment on human CD4+ T cells, 30 to 100 nM. The “MTHFD1/MTHFD2 IC50 ratio” value in experiment [2] was “J (>30)”.

On to `COC[C@H]1CN(c2ccc3c4c(c(=O)oc3c2C)CN(C(=O)c2ccc(C(=O)NS(=O)(=O)C3(C)CC3)c(N3CCCC3)c2)CC4)CCN1C` [Example 15, (R)-4-(8-(3-(methoxymethyl)-4-methylpiperazin-1-yl)-7-methyl-5-oxo-1,3,4,5-tetrahydro-2H-chromeno[3,4-c]pyridine-3-carbonyl)-N-((1-methylcyclopropyl)sulfonyl)-2-(pyrrolidin-1-yl)benzamide], for which the IC50 in experiment [1] was 10 to 100 nM; in experiment [2], 10 to 100 nM; with human CD4+ T cells, 1 to 10 nM. In addition, the “MTHFD1/MTHFD2 IC50 ratio” value in experiment [2] was “F (<3)”.

Take `CCOc1cc(C(=O)N2CCc3c(c(=O)oc4c(C)c(N5CCN(C)[C@@H](COC)C5)cc(C)c34)C2)c(F)cc1C(=O)NS(=O)(=O)N1CC2CC2C1` (stereo partly drawn) [Example 219, N-((3-azabicyclo[3.1.0]hexan-3-yl)sulfonyl)-2-ethoxy-5-fluoro-4-(8-((R)-3-(methoxymethyl)-4-methylpiperazin-1-yl)-7,10-dimethyl-5-oxo-1,3,4,5-tetrahydro-2H-chromeno[3,4-c]pyridine-3-carbonyl)benzamide]: the IC50 in experiment [1] was 10 to 100 nM; in experiment [2] it was 10 to 100 nM; with human CD4+ T cells it was 10 to 30 nM. For the same compound, the “MTHFD1/MTHFD2 IC50 ratio” value in experiment [2] was “G (^ 3 to 9.0)”.
